{"source": "patent US9499550B2", "about": "(BRISTOL-MYERS SQUIBB COMPANY, priority 2012, dated 2016)", "key": {"[1]": {"test_system": "HCV genotype 1a (H77 strain) replicon in HUH-7 cells", "assay": "HCV replicon luciferase reporter assay, genotype 1a", "format": "cell-based", "details": "Hepatitis C virus, Huh-7, 72 h, HCV genotype 1a replicon luciferase, 3 days incubation, read-out: LE_1a (EC50, range)", "procedure,_shortened": "(§1)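 Replicon inhibition for both genotypes was measured as Renilla luciferase signal (EnduRen, 7.5 μM final, 2 h) after 3-day, 37° C exposure of replicon-bearing HUH-7 cells in 4% FCS DMEM, 0.5% DMSO. The 1b construct carries S1179I; the 1a H77 construct carries P1496L and S2204I. Twenty-point, 3-fold dilutions were fitted four-parametrically for EC50, and CC50 was taken from multiplexed Cell Titer-Blue.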"}, "[2]": {"test_system": "HCV genotype 1b (Con1) replicon in HUH-7 cells", "assay": "HCV replicon luciferase reporter assay, genotype 1b", "format": "cell-based", "details": "Hepatitis C virus, Huh-7, 72 h, HCV genotype 1b replicon luciferase, 3 days incubation, read-out: LE_1b (EC50, range)", "procedure,_shortened": "as §1"}, "HCV": {"test_system": "HCV", "details": "combination therapy, HCV infected patients; cited from earlier work"}}, "data": [{"compound": "CC(C)Oc1cc2ccccc2c(O[C@@H]2C[C@H]3C(=O)N[C@]4(C(=O)NS(=O)(=O)C5(C)CC5)C[C@H]4/C=C\\CC[C@@H](C)C[C@@H](C)[C@H](NC(=O)OC(C)(C)C)C(=O)N3C2)n1", "note": "[Compound 6098, tert-butyl ((2R,6S,7R,9R,13aS,14aR,16aS,Z)-2-((3-isopropoxyisoquinolin-1-yl)oxy)-7,9-dimethyl-14a-(((1-methylcyclopropyl)sulfonyl)carbamoyl)-5,16-dioxo-1,2,3,5,6,7,8,9,10,11,13a,14,14a,15,16,16a-hexadecahydrocyclopropa[e]pyrrolo[1,2-a][1,4]diazacyclopentadecin-6-yl)carbamate]", "values": [{"measurement": "EC50", "setting": "[1]", "value": "0.51 to 1", "unit": "nM"}, {"measurement": "EC50", "setting": "[2]", "value": "0.1 to 0.5", "unit": "nM"}]}, {"compound": "CCOc1cc2ccccc2c(O[C@@H]2C[C@H]3C(=O)N[C@]4(C(=O)NS(=O)(=O)C5(C)CC5)C[C@H]4/C=C\\CC[C@H](C)C[C@@H](C)[C@H](NC(=O)OC(C)(C)C(F)(F)F)C(=O)N3C2)n1", "note": "[Compound 6099, 1,1,1-trifluoro-2-methylpropan-2-yl((2R,6S,7R,9S,13aS,14aR,16aS,Z)-2-((3-ethoxyisoquinolin-1-yl)oxy)-7,9-dimethyl-14a-(((1-methylcyclopropyl)sulfonyl)carbamoyl)-5,16-dioxo-1,2,3,5,6,7,8,9,10,11,13a,14,14a,15,16,16a-hexadecahydrocyclopropa[e]pyrrolo[1,2-a][1,4]diazacyclopentadecin-6-yl)carbamate]", "values": [{"measurement": "EC50", "setting": "[1]", "value": "1.01 to 5", "unit": "nM"}, {"measurement": "EC50", "setting": "[2]", "value": "1.01 to 5", "unit": "nM"}]}, {"compound": "CCOc1cc2ccccc2c(O[C@@H]2C[C@H]3C(=O)N[C@]4(C(=O)NS(=O)(=O)C5(C)CC5)C[C@H]4/C=C\\CC[C@@H](C)C[C@@H](C)[C@H](NC(=O)OC(C)(C)C(F)(F)F)C(=O)N3C2)n1", "note": "[Compound 6100, 1,1,1-trifluoro-2-methylpropan-2-yl((2R,6S,7R,9R,13aS,14aR,16aS,Z)-2-((3-ethoxyisoquinolin-1-yl)oxy)-7,9-dimethyl-14a-(((1-methylcyclopropyl)sulfonyl)carbamoyl)-5,16-dioxo-1,2,3,5,6,7,8,9,10,11,13a,14,14a,15,16,16a-hexadecahydrocyclopropa[e]pyrrolo[1,2-a][1,4]diazacyclopentadecin-6-yl)carbamate]", "values": [{"measurement": "EC50", "setting": "[1]", "value": "1.01 to 5", "unit": "nM"}, {"measurement": "EC50", "setting": "[2]", "value": "0.1 to 0.5", "unit": "nM"}]}, {"compound": "CCOc1cc2ccccc2c(O[C@@H]2C[C@H]3C(=O)N[C@]4(C(=O)NS(=O)(=O)C5(C)CC5)C[C@H]4/C=C\\CC[C@@H](C)C[C@@H](C)[C@H](NC(=O)OC(C)(C)C(C)(F)F)C(=O)N3C2)n1", "note": "[Compound 6102, 3,3-difluoro-2-methylbutan-2-yl((2R,6S,7R,9R,13aS,14aR,16aS,Z)-2-((3-ethoxyisoquinolin-1-yl)oxy)-7,9-dimethyl-14a-(((1-methylcyclopropyl)sulfonyl)carbamoyl)-5,16-dioxo-1,2,3,5,6,7,8,9,10,11,13a,14,14a,15,16,16a-hexadecahydrocyclopropa[e]pyrrolo[1,2-a][1,4]diazacyclopentadecin-6-yl)carbamate]", "values": [{"measurement": "EC50", "setting": "[1]", "value": "0.51 to 1", "unit": "nM"}, {"measurement": "EC50", "setting": "[2]", "value": "0.1 to 0.5", "unit": "nM"}]}, {"compound": "CC(C)Oc1cc2ccccc2c(O[C@@H]2C[C@H]3C(=O)N[C@]4(C(=O)NS(=O)(=O)C5(C)CC5)C[C@H]4/C=C\\CC[C@@H](C)C[C@@H](C)[C@H](NC(=O)OC(C)(C)C(F)(F)F)C(=O)N3C2)n1", "note": "[Compound 6104, 1,1,1-trifluoro-2-methylpropan-2-yl((2R,6S,7R,9R,13aS,14aR,16aS,Z)-2-((3-isopropoxyisoquinolin-1-yl)oxy)-7,9-dimethyl-14a-(((1-methylcyclopropyl)sulfonyl)carbamoyl)-5,16-dioxo-1,2,3,5,6,7,8,9,10,11,13a,14,14a,15,16,16a-hexadecahydrocyclopropa[e]pyrrolo[1,2-a][1,4]diazacyclopentadecin-6-yl)carbamate]", "values": [{"measurement": "EC50", "setting": "[1]", "value": "1.01 to 5", "unit": "nM"}, {"measurement": "EC50", "setting": "[2]", "value": "0.51 to 1", "unit": "nM"}]}, {"compound": "CC(C)Oc1cc2ccccc2c(O[C@@H]2C[C@H]3C(=O)N[C@]4(C(=O)NS(=O)(=O)C5(C)CC5)C[C@H]4/C=C\\CC[C@H](C)C[C@@H](C)[C@H](NC(=O)OC(C)(C)C(C)(F)F)C(=O)N3C2)n1", "note": "[Compound 6105, 3,3-difluoro-2-methylbutan-2-yl((2R,6S,7R,9S,13aS,14aR,16aS,Z)-2-((3-isopropoxyisoquinolin-1-yl)oxy)-7,9-dimethyl-14a-(((1-methylcyclopropyl)sulfonyl)carbamoyl)-5,16-dioxo-1,2,3,5,6,7,8,9,10,11,13a,14,14a,15,16,16a-hexadecahydrocyclopropa[e]pyrrolo[1,2-a][1,4]diazacyclopentadecin-6-yl)carbamate]", "values": [{"measurement": "EC50", "setting": "[1]", "value": "5.01 to 35", "unit": "nM"}, {"measurement": "EC50", "setting": "[2]", "value": "1.01 to 5", "unit": "nM"}]}, {"compound": "CC(C)Oc1cc2ccccc2c(O[C@@H]2C[C@H]3C(=O)N[C@]4(C(=O)NS(=O)(=O)C5(C)CC5)C[C@H]4/C=C\\CC[C@@H](C)C[C@@H](C)[C@H](NC(=O)OC(C)(C)C(C)(F)F)C(=O)N3C2)n1", "note": "[Compound 6106, 3,3-difluoro-2-methylbutan-2-yl((2R,6S,7R,9R,13aS,14aR,16aS,Z)-2-((3-isopropoxyisoquinolin-1-yl)oxy)-7,9-dimethyl-14a-(((1-methylcyclopropyl)sulfonyl)carbamoyl)-5,16-dioxo-1,2,3,5,6,7,8,9,10,11,13a,14,14a,15,16,16a-hexadecahydrocyclopropa[e]pyrrolo[1,2-a][1,4]diazacyclopentadecin-6-yl)carbamate]", "values": [{"measurement": "EC50", "setting": "[1]", "value": "1.01 to 5", "unit": "nM"}, {"measurement": "EC50", "setting": "[2]", "value": "0.1 to 0.5", "unit": "nM"}]}, {"compound": "CCOc1cc2ccccc2c(O[C@@H]2C[C@H]3C(=O)N[C@]4(C(=O)NS(=O)(=O)C5(CF)CC5)C[C@H]4/C=C\\CC[C@@H](C)C[C@@H](C)[C@H](NC(=O)OC(C)(C)C)C(=O)N3C2)n1", "note": "[Compound 6108, tert-butyl ((2R,6S,7R,9R,13aS,14aR,16aS,Z)-2-((3-ethoxyisoquinolin-1-yl)oxy)-14a-(((1-(fluoromethyl)cyclopropyl)sulfonyl)carbamoyl)-7,9-dimethyl-5,16-dioxo-1,2,3,5,6,7,8,9,10,11,13a,14,14a,15,16,16a-hexadecahydrocyclopropa[e]pyrrolo[1,2-a][1,4]diazacyclopentadecin-6-yl)carbamate]", "values": [{"measurement": "EC50", "setting": "[1]", "value": "0.51 to 1", "unit": "nM"}, {"measurement": "EC50", "setting": "[2]", "value": "0.1 to 0.5", "unit": "nM"}]}, {"compound": "CC(C)Oc1cc2ccccc2c(O[C@@H]2C[C@H]3C(=O)N[C@]4(C(=O)NS(=O)(=O)C5(CF)CC5)C[C@H]4/C=C\\CC[C@@H](C)C[C@@H](C)[C@H](NC(=O)OC(C)(C)C)C(=O)N3C2)n1", "note": "[Compound 6110, tert-butyl ((2R,6S,7R,9R,13aS,14aR,16aS,Z)-14a-(((1-(fluoromethyl)cyclopropyl)sulfonyl)carbamoyl)-2-((3-isopropoxyisoquinolin-1-yl)oxy)-7,9-dimethyl-5,16-dioxo-1,2,3,5,6,7,8,9,10,11,13a,14,14a,15,16,16a-hexadecahydrocyclopropa[e]pyrrolo[1,2-a][1,4]diazacyclopentadecin-6-yl)carbamate]", "values": [{"measurement": "EC50", "setting": "[1]", "value": "1.01 to 5", "unit": "nM"}, {"measurement": "EC50", "setting": "[2]", "value": "0.51 to 1", "unit": "nM"}]}, {"compound": "CCOc1cc2ccccc2c(O[C@@H]2C[C@H]3C(=O)N[C@]4(C(=O)NS(=O)(=O)C5(CF)CC5)C[C@H]4/C=C\\CC[C@@H](C)C[C@@H](C)[C@H](NC(=O)OC(C)(C)C(F)(F)F)C(=O)N3C2)n1", "note": "[Compound 6112, 1,1,1-trifluoro-2-methylpropan-2-yl((2R,6S,7R,9R,13aS,14aR,16aS,Z)-2-((3-ethoxyisoquinolin-1-yl)oxy)-14a-(((1-(fluoromethyl)cyclopropyl)sulfonyl)carbamoyl)-7,9-dimethyl-5,16-dioxo-1,2,3,5,6,7,8,9,10,11,13a,14,14a,15,16,16a-hexadecahydrocyclopropa[e]pyrrolo[1,2-a][1,4]diazacyclopentadecin-6-yl)carbamate]", "values": [{"measurement": "EC50", "setting": "[1]", "value": "1.01 to 5", "unit": "nM"}, {"measurement": "EC50", "setting": "[2]", "value": "0.51 to 1", "unit": "nM"}]}, {"compound": "CCOc1cc2ccccc2c(O[C@@H]2C[C@H]3C(=O)N[C@]4(C(=O)NS(=O)(=O)C5(CF)CC5)C[C@H]4/C=C\\CC[C@@H](C)C[C@@H](C)[C@H](NC(=O)OC(C)(C)C(C)(F)F)C(=O)N3C2)n1", "note": "[Compound 6114, 3,3-difluoro-2-methylbutan-2-yl((2R,6S,7R,9R,13aS,14aR,16aS,Z)-2-((3-ethoxyisoquinolin-1-yl)oxy)-14a-(((1-(fluoromethyl)cyclopropyl)sulfonyl)carbamoyl)-7,9-dimethyl-5,16-dioxo-1,2,3,5,6,7,8,9,10,11,13a,14,14a,15,16,16a-hexadecahydrocyclopropa[e]pyrrolo[1,2-a][1,4]diazacyclopentadecin-6-yl)carbamate]", "values": [{"measurement": "EC50", "setting": "[1]", "value": "1.01 to 5", "unit": "nM"}, {"measurement": "EC50", "setting": "[2]", "value": "0.1 to 0.5", "unit": "nM"}]}, {"compound": "CC(C)Oc1cc2ccccc2c(O[C@@H]2C[C@H]3C(=O)N[C@]4(C(=O)NS(=O)(=O)C5(CF)CC5)C[C@H]4/C=C\\CC[C@@H](C)C[C@@H](C)[C@H](NC(=O)OC(C)(C)C(F)(F)F)C(=O)N3C2)n1", "note": "[Compound 6116, 1,1,1-trifluoro-2-methylpropan-2-yl((2R,6S,7R,9R,13aS,14aR,16aS,Z)-14a-(((1-(fluoromethyl)cyclopropyl)sulfonyl)carbamoyl)-2-((3-isopropoxyisoquinolin-1-yl)oxy)-7,9-dimethyl-5,16-dioxo-1,2,3,5,6,7,8,9,10,11,13a,14,14a,15,16,16a-hexadecahydrocyclopropa[e]pyrrolo[1,2-a][1,4]diazacyclopentadecin-6-yl)carbamate]", "values": [{"measurement": "EC50", "setting": "[1]", "value": "1.01 to 5", "unit": "nM"}, {"measurement": "EC50", "setting": "[2]", "value": "1.01 to 5", "unit": "nM"}]}, {"compound": "CC(C)Oc1cc2ccccc2c(O[C@@H]2C[C@H]3C(=O)N[C@]4(C(=O)NS(=O)(=O)C5(CF)CC5)C[C@H]4/C=C\\CC[C@@H](C)C[C@@H](C)[C@H](NC(=O)OC(C)(C)C(C)(F)F)C(=O)N3C2)n1", "note": "[Compound 6118, 3,3-difluoro-2-methylbutan-2-yl((2R,6S,7R,9R,13aS,14aR,16aS,Z)-14a-(((1-(fluoromethyl)cyclopropyl)sulfonyl)carbamoyl)-2-((3-isopropoxyisoquinolin-1-yl)oxy)-7,9-dimethyl-5,16-dioxo-1,2,3,5,6,7,8,9,10,11,13a,14,14a,15,16,16a-hexadecahydrocyclopropa[e]pyrrolo[1,2-a][1,4]diazacyclopentadecin-6-yl)carbamate]", "values": [{"measurement": "EC50", "setting": "[1]", "value": "1.01 to 5", "unit": "nM"}, {"measurement": "EC50", "setting": "[2]", "value": "1.01 to 5", "unit": "nM"}]}, {"compound": "alpha-interferon and ribavirin", "values": [{"measurement": "sustained efficacy", "setting": "HCV", "value": "40 % of patients"}]}]}
